Results on 5 compounds are retold here after ChEMBL document CHEMBL2390818, “Peripherally acting novel lipo-endomorphin-1 peptides in neuropathic pain without producing constipation” (Bioorg Med Chem, 2013).

Data set [1] has as its system Rattus norvegicus. As to the kind of experiment: Antiallodynic activity in iv dosed Sprague-Dawley rat chronic constriction injury model assessed as change in ipsilateral hindpaw withdrawal threshold administered as single bolus dose separated by 2 to 3 days wash-out period. Type of data set: functional.
Data set [2] deals with Rattus norvegicus. As to the kind of experiment: Antiallodynic activity in Sprague-Dawley rat chronic constriction injury model assessed as change in ipsilateral hindpaw withdrawal threshold at 0.16 to 16 umol/kg, iv administered as single bolus dose separated by 2 to 3 days wash-out period. Type of data set: functional, organism-based.
Data set [3] deals with Rattus norvegicus. As to the kind of experiment: Toxicity in Sprague-Dawley rat castor oil-induced diarrhoea model assessed as induction of constipation at 1.6 to 16 umol/kg, iv administered as single bolus dose incubated for 5 mins prior to castor oil-challenge measured after 8 hrs. The data set is classed as organism-based. The following applies: in vivo.
Data set [4] has as its system Rattus norvegicus. As to the kind of experiment: Antiallodynic activity in iv dosed Sprague-Dawley rat chronic constriction injury model assessed as change in ipsilateral hindpaw withdrawal threshold administered as single bolus dose. The data set is classed as functional.
Data set [5] relates to Rattus norvegicus. As to the kind of experiment: Toxicity in Sprague-Dawley rat assessed as induction of respiratory depression measured as change in hypercapnia-induced stimulation of minute ventilation at 1.6 umol/kg, iv administered as single bolus dose after 0.5 to 2 hrs. The data set is classed as organism-based. The following applies: in vivo.
The subject of data set [6] is Rattus norvegicus. Description: Antiallodynic activity in iv dosed Sprague-Dawley rat chronic constriction injury model assessed as change in ipsilateral hindpaw withdrawal threshold administered as single bolus dose separated by 2 to 3 days wash-out period measured at 15 mins to 2 hrs post dose. The data set is classed as functional, organism-based.
Data set [7] has as its system Rattus norvegicus. Description: Antiallodynic activity in Sprague-Dawley rat chronic constriction injury model assessed as change in ipsilateral hindpaw withdrawal threshold at 0.5 umol/kg, iv administered as single bolus dose separated by 2 to 3 days wash-out period. The data set is classed as functional, organism-based.
Data set [8] relates to Rattus norvegicus. Description: Antiallodynic activity in Sprague-Dawley rat chronic constriction injury model assessed as change in ipsilateral hindpaw withdrawal threshold at 0.5 to 5 umol/kg, iv administered as single bolus dose. Type of data set: functional, organism-based.
The test system of data set [9] is Rattus norvegicus. Description: Antinociceptive activity in contralateral hindpaw of Sprague-Dawley rat chronic constriction injury model at 5 umol/kg, iv administered as single bolus dose separated by 2 to 3 days wash-out period. Type of data set: functional, organism-based.
For data set [10], the system named is Rattus norvegicus. As to the kind of experiment: Toxicity in Sprague-Dawley rat assessed as induction of constipation measured as gastrointestinal propulsion rate at 16 umol/kg, iv administered as single bolus dose prior to aqueous activated charcoal suspension treatment measured after 1 hr (reference value: 65.3 +/- 3.1%). Type of data set: organism-based. The following applies: in vivo.

SMILES strings stand for the structures. Calls of active or inactive are those of the source. Peptide text beside a SMILES is read from it.

As for `CN1CC[C@]23c4c5ccc(O)c4O[C@H]2[C@@H](O)C=C[C@H]3[C@H]1C5`, the ED50 (usually the midpoint of the dose-response relation) in the data set on Rattus norvegicus [1] is 2.64 µmol/kg.

Consider `Cc1cc(O)cc(C)c1C[C@H](N)C(=O)N1CCC[C@H]1C(=O)N[C@@H](Cc1c[nH]c2ccccc12)C(=O)N[C@@H](Cc1ccccc1)C(N)=O`, for which the outcome in the data set on Rattus norvegicus [2] was inactive.

With `NC(=O)[C@H](Cc1ccccc1)NC(=O)[C@H](Cc1c[nH]c2ccccc12)NC(=O)[C@@H]1CCCN1C(=O)[C@@H](N)Cc1ccc(O)cc1`, the result with Rattus norvegicus [2] was inactive.

Take `CCCCCCC(N)C(=O)N[C@@H](Cc1ccc(O)cc1)C(=O)N1CCC[C@H]1C(=O)N[C@@H](Cc1c[nH]c2ccccc12)C(=O)N[C@@H](Cc1ccccc1)C(N)=O` (stereo partly specified) (HELM PEPTIDE1{[CCCCCCC(N)C(=O)[*:2]].Y.P.W.F.[am]}$$$$V2.0): the Activity result with Rattus norvegicus [3] is “Non-toxic”; in the data set with Rattus norvegicus [5], “Non-toxic”; in the data set with Rattus norvegicus [6], “Dose-dependent effect”; in the data set with Rattus norvegicus [10], 77%. The ED50 in the data set with Rattus norvegicus [4] turned out to be 6.64 µmol/kg; in the data set with Rattus norvegicus [1], 6.58 µmol/kg. The outcome with Rattus norvegicus [7] and with Rattus norvegicus [8] was Active. Moreover, in the data set on Rattus norvegicus [9], the outcome was inactive.

As for `CCCCCCC(N)C(=O)N[C@@H](Cc1c(C)cc(O)cc1C)C(=O)N1CCC[C@H]1C(=O)N[C@@H](Cc1c[nH]c2ccccc12)C(=O)N[C@@H](Cc1ccccc1)C(N)=O` (stereo partly specified) (HELM PEPTIDE1{[CCCCCCC(N)C(=O)[*:2]].[Cc1cc(O)cc(C)c1C[C@H](N[*:1])C(=O)[*:2]].P.W.F.[am]}$$$$V2.0), in the data set with Rattus norvegicus [1], the ED50 amounted to 6.18 µmol/kg. Further, in the data set on Rattus norvegicus [6], the Activity result is “Dose-dependent effect”. For the same compound, in the data set with Rattus norvegicus [7], the outcome was Active. In addition, the result with Rattus norvegicus [9] was inactive.
